# Experimental data published in patent US9995734B2, “Human T cell line assay for evaluating the immunologic identity of glatiramer acetate preparations” (Mylan Inc., priority 2013, dated 2018).
# Assays:
# Donor 4 COP T-Cell Lines = assay: ATP proliferation assay (CellTiter Glo), Donor 4 COP T-cell lines, incl. reactivity to non-canonical GA peptides; format: cell-based, human; conditions: for Reactivity (proliferation), Mean: 0 μg/mL 6941
# Donor 1 COP T-Cell Lines = assay: ATP proliferation assay (CellTiter Glo), Donor 1 COP T-cell lines, incl. reactivity to non-canonical GA peptides; format: cell-based, human; conditions: for ATP Proliferation Assay, Mean: Day 56, second assay; for luminescent ATP proliferation assay, mean: no antigen 5673 (Table 9); for Proliferation (luminescent ATP assay), Mean: Day 56 of culturing
# Description: Proliferation was evaluated by measuring ATP content using a luminescent method (CellTiter Glo Luminescent Cell Viability Assay, Promega, Madison, Wis., cat. #G7571) or by measuring BrdU uptake by ELISA (Millipore cat. #2752), in both cases following kit instructions. A split well format was used. Cells in each well were resuspended and 65 μl transferred to the wells of each of two new U-bottom 96-well plates, to generate the replicate plates. For the initial screening, the original 96-well plate received mitomycin-treated autologous PBMC as APC plus 10 μg/mL antigen (GA). A first replicate plate received 100 μl., mitomycin-treated PBMC alone (2×10^5), and no antigen, and a second replicate plate received 100 μL mitomycin-treated PBMC plus GA at a final concentration of 10 μg/mL. Therefore, all three plates received autologous APC (PBMC) treated with mitomycin C to prevent cell division. […] The latter two plates were incubated for 3 days at 37° C., 6% CO2 before adding CellTiter Glo or BrdU and measuring signal. IL-2 was added at 10 U/mL to the original 96-well plate for expansion on Day 17. For subsequent screenings, mitomycin-treated EBV-transformed autologous B-LCL (2×10^5 to 5×10^5 cells/mL) were used as APC.
# COP-responsive T-cell lines were obtained from Donor 1. In the initial stimulation, isolated PBMC were plated at 1×10^5 cells per well (5×10^5 cells/mL) with 10 μg/mL Copaxone and cultured as described above. IL-2 was added to all wells on Days 4 and 7 of culture, and the wells screened for reactivity on Day 14 using a luminescent proliferation assay in split well format. The original plate was restimulated, and IL-2 added 4 days after restimulation.
# T-cell line 222-2D8, generated from Donor 1 by initial stimulation with COP, was shown in at least two experiments to proliferate comparably following restimulation with GMA and COP. […] ATP levels were measured at 48 hours after stimulation. The control in the GMA series was no antigen, and the control in the COP series was MBP. The response to GMA in comparison to COP at the 10 μg/mL dose in this assay was 103.4%.
# In a second ATP proliferation assay, carried out on Day 56 or culturing following stimulation with 1, 3, or 10 μg/mL of GMA or COP, the response to GMA in comparison to COP at the 10 μg/mL dose was 107.1%.
# T-cell line 222-2F1, generated from Donor 222 by initial stimulation with COP, was shown in at least two experiments to proliferate comparably following restimulation with GMA and COP. […] ATP levels were measured at 48 hours after stimulation. The control in the GMA series was no antigen, and the control in the COP series was MBP. The response to GMA in comparison to COP at the 10 μg/mL dose in this assay was 85.1%.
# On Day 56 of culturing, after six total rounds of stimulation, cell line 222-2F12 was assayed for proliferation in response to stimulation with GA and a series of non-canonical peptides. For the assay, 0, 3, 10, or 30 μg/mL of each of peptides GL 14, GLT 631, GAT 111, and GAT 631, COP, and GMA, were added to the T-cell lines at 1×10^5 cells/mL, in the presence of mitomycin C-treated autologous B-LCL. Proliferation was measured by luminescent ATP assay. Cell line 222-2F12 responded to GL 14 at 3 μg/mL, and not to the other non-canonical GA peptides tested. The response to GMA in comparison to COP at the 10 μg/mL dose in this assay was 99.4%.
# The cultures were restimulated on days 46, 56, 67 and 75. On Day 56, cell lines 222-2D8, 222-1H12, 222-2F12, 222-2B8, 222-105, 222-2B11, and 222-2E1 again were tested for reactivity to stimulation with 1, 3, or 10 μg/mL of GMA or COP in a proliferation assay. ATP levels were measured in all seven cell lines at 48 hours (results in FIGS. 5A-G) after stimulation. The control in the GMA series was no antigen, and the control in the COP series was MBP. […]
substance,measurement,setting,value
glatiramer acetate [COP],"Proliferation (luminescent ATP assay), Mean","Donor 4 COP T-Cell Lines; T-cell line 205-1H7, 30 μg/mL antigen, after seven stimulations, 0 μg/mL 3382",190750 RLU
same,"COP 10 μg/mL, ATP proliferation assay","Donor 4 COP T-Cell Lines; T-cell line 205-1H7, Day 13",64436 RLU
same,"COP 10 μg/mL, ATP proliferation assay","Donor 4 COP T-Cell Lines; T-cell line 205-1H9, Day 13",52972 RLU
same,"Reactivity (proliferation), Mean","Donor 4 COP T-Cell Lines; T-cell line 205-1H11, 1 μg/mL antigen",12243 RLU
same,"Reactivity (proliferation), Mean","Donor 4 COP T-Cell Lines; T-cell line 205-1H11, 10 μg/mL antigen",147464 RLU
same,"Reactivity (proliferation), Mean","Donor 4 COP T-Cell Lines; T-cell line 205-1H11, 30 μg/mL antigen",112673 RLU
same,"COP 10 μg/mL, ATP proliferation assay","Donor 4 COP T-Cell Lines; T-cell line 205-1H11, Day 13",54232 RLU
same,ATP ratio (COP stimulated:unstimulated control),"Donor 4 COP T-Cell Lines; fifteen Donor 4 wells, Day 13, 10 μg/mL (Table 26)",two or greater
same,ATP proliferation assay,"Donor 1 COP T-Cell Lines; 222-1C5, 10 μg/mL, Day 14, control 7087",14906 RLU
same,ATP proliferation assay,"Donor 1 COP T-Cell Lines; 222-1F8, 10 μg/mL, Day 14, control 2308",6519 RLU
same,ATP proliferation assay,"Donor 1 COP T-Cell Lines; 222-1G8, 10 μg/mL, Day 14, control 4030",8308 RLU
same,ATP proliferation assay,"Donor 1 COP T-Cell Lines; 222-1H12, 10 μg/mL, Day 14, control 8141",23836 RLU
same,ATP proliferation assay,"Donor 1 COP T-Cell Lines; 222-2B8, 10 μg/mL, Day 14, control 5543",13600 RLU
same,ATP proliferation assay,"Donor 1 COP T-Cell Lines; 222-2B11, 10 μg/mL, Day 14, control 6340",16460 RLU
same,ATP proliferation assay,"Donor 1 COP T-Cell Lines; 222-2C1, 10 μg/mL, Day 14, control 8350",20166 RLU
same,ATP proliferation assay,"Donor 1 COP T-Cell Lines; 222-2C3, 10 μg/mL, Day 14, control 6839",14045 RLU
same,ATP proliferation assay,"Donor 1 COP T-Cell Lines; 222-2C5, 10 μg/mL, Day 14, control 4695",9577 RLU
same,ATP proliferation assay,"Donor 1 COP T-Cell Lines; 222-2D2, 10 μg/mL, Day 14, control 7135",16271 RLU
same,ATP proliferation assay,"Donor 1 COP T-Cell Lines; 222-2D8, 10 μg/mL, Day 14, control 13024",26495 RLU
same,"ATP Proliferation Assay, Mean","Donor 1 COP T-Cell Lines; 222-2D8, 1 μg/mL (Table 7)",7229
same,"ATP Proliferation Assay, Mean","Donor 1 COP T-Cell Lines; 222-2D8, 3 μg/mL (Table 7)",134127
same,"ATP Proliferation Assay, Mean","Donor 1 COP T-Cell Lines; 222-2D8, 10 μg/mL (Table 7)",146092
same,ATP proliferation assay,"Donor 1 COP T-Cell Lines; 222-2D8, Day 56, 48 hours after stimulation, 1 μg/mL (Table 6)",4888
same,ATP proliferation assay,"Donor 1 COP T-Cell Lines; 222-2D8, Day 56, 48 hours after stimulation, 3 μg/mL (Table 6)",6392
same,ATP proliferation assay,"Donor 1 COP T-Cell Lines; 222-2D8, Day 56, 48 hours after stimulation, 10 μg/mL (Table 6)",12161
same,ATP proliferation assay,"Donor 1 COP T-Cell Lines; 222-2E1, 10 μg/mL, Day 14, control 8035",17064 RLU
same,ATP proliferation assay,"Donor 1 COP T-Cell Lines; 222-2F12, 10 μg/mL, Day 14, control 9703",28022 RLU
same,"luminescent ATP proliferation assay, mean","Donor 1 COP T-Cell Lines; 222-2F12, Day 56, 3 μg/mL",233087
same,"luminescent ATP proliferation assay, mean","Donor 1 COP T-Cell Lines; 222-2F12, Day 56, 10 μg/mL",230009
same,"luminescent ATP proliferation assay, mean","Donor 1 COP T-Cell Lines; 222-2F12, Day 56, 30 μg/mL",118769
same,ATP proliferation assay,"Donor 1 COP T-Cell Lines; 222-2F12, Day 56, 48 hours after stimulation, 1 μg/mL (Table 8)",5281
same,ATP proliferation assay,"Donor 1 COP T-Cell Lines; 222-2F12, Day 56, 48 hours after stimulation, 3 μg/mL (Table 8)",8684
same,ATP proliferation assay,"Donor 1 COP T-Cell Lines; 222-2F12, Day 56, 48 hours after stimulation, 10 μg/mL (Table 8)",11747
same,ATP proliferation assay,"Donor 1 COP T-Cell Lines; 222-2G4, 10 μg/mL, Day 14, control 2566",6812 RLU
same,ATP proliferation assay,"Donor 1 COP T-Cell Lines; 222-2G12, 10 μg/mL, Day 14, control 3913",9899 RLU
same,"Proliferation (luminescent ATP assay), Mean","Donor 1 COP T-Cell Lines; T-cell line 222-1H12, 3 μg/mL antigen, 0 μg/mL 5974",146874 RLU
same,"Proliferation (luminescent ATP assay), Mean","Donor 1 COP T-Cell Lines; T-cell line 222-1H12, 10 μg/mL antigen, 0 μg/mL 5974",168163 RLU
same,"Proliferation (luminescent ATP assay), Mean","Donor 1 COP T-Cell Lines; T-cell line 222-1H12, 30 μg/mL antigen, 0 μg/mL 5974",68492 RLU
same,"Proliferation (luminescent ATP assay), Mean","Donor 1 COP T-Cell Lines; T-cell line 222-2F12, 3 μg/mL antigen, 0 μg/mL 5673",233087
same,"Proliferation (luminescent ATP assay), Mean","Donor 1 COP T-Cell Lines; T-cell line 222-2F12, 10 μg/mL antigen, 0 μg/mL 5673",230009
same,"Proliferation (luminescent ATP assay), Mean","Donor 1 COP T-Cell Lines; T-cell line 222-2F12, 30 μg/mL antigen, 0 μg/mL 5673",118769
same,ATP proliferation signal relative to control,"Donor 1 COP T-Cell Lines; fifteen Donor 1 COP T-cell lines of Table 5, 10 μg/mL",at least twice the signal as control
